Test results taken from patent publication US5236903A, “Polypeptide comprising repeated cell-adhesive core sequences” (Azuma; Ichiro, priority 1988, dated 1993).
Read-outs that look alike come from different tables or passages of the source. Ends that are not written are not given here.

Tests used:
[1] = tested on: adhesion of B16-BL6 melanoma cells to fibronectin; assay: Inhibition of B16-BL6 cell adhesion to fibronectin-coated substrate by peptides present during culture; format: cell-based, mouse
[2] = tested on: Lewis lung cancer cells (3 LL); assay: Experimental metastasis to lung induced by injecting Lewis lung cancer cells (3LL); format: in vivo, C57BL/6 mice; conditions: for No. of instances of metastasis to lung mean ± SD: 3LL
Method: Namely, portions of 2, 20 and 100 μg of the above compound were each mixed with 3×10^4 Lewis lung cancer cells (3 LL) and administered to a group of C57BL/6 mice in the same manner as the one described in the above (b). Thus the antimetastatic effect of this compound was examined.

[3] = tested on: B16-BL6 melanoma cells; assay: Experimental metastasis to lung induced by intravenously injecting B16-BL6 melanoma cells; format: in vivo, C57BL/6 mice; conditions: for No. of instances of metastasis to lung mean ± SD: B16-BL6; for Antimetastatic effect compared with the control group (in words): 1,000 μg mixed with cells; for Antimetastatic effect on metastasis to lungs (in words): 500 μg mixed with cells, i.v.
[4] = tested on: erythrocytes, spleen and thymus cells
[5] = tested on: mouse B16-BL6 melanoma cells; assay: Adhesion of B16-BL6 melanoma cells to substrate coated with polypeptide or fibronectin; format: cell-based; conditions: 37° C., 20 minutes; for Adhesiveness adhered cell No./substrate (SD): wells coated with 20 μg/ml polypeptide, 5 μg/ml fibronectin or 1% BSA, 2×10^4 cells
Description: The adhesiveness to target cells of the compound of the present invention was examined in accordance with a method reported by Saiki et al. […] Namely, a polypeptide of the present invention having a structure of ([…] and a molecular weight of approximately 5,000 prepared in the following Synthetic Example 1 and a comparative polypeptide, ([…], carrying a random sequence of the corresponding amino acids Arg, Gly and Asp and having a molecular weight of approximately 5,000 prepared in the following Synthetic Example 3 were employed. The adhesiveness of each compound was examined by using mouse B16-Bl6 melanoma cells as the target. First, microculture wells were preliminarily coated with 20 μg/ml of the polypeptide to be examined or 5 μg/ml of mouse fibronectin (obtained from Seikagaku Kogyo, Japan) which was used as a positive control. Next 0.05 ml/well of B16-BL6 melamona cells (2×10^4) labeled with a radioactive iodide [^125 I]IUdR was added thereto and the cells were cultured at 37° C. for 20 minutes. […] Subsequently the cells were collected and suspended in a serum-free MEM medium. The cell suspension thus obtained was used in the above examination. The unadsorbed cells in the well were washed away with PBS 4 times. Then the cells adsorbed by the well were dissolved in 0.1 ml of 0.1N NaOH. The number of adsorbed cells was determined by measuring the radioactivity of the dissolved cells.

[6] = tested on: B16-BL6 melanoma cells; conditions: for Metastasis of the cancer to the lungs (in words): 100 μg on 1st or 7th day single dose or 50 μg on 7th, 10th, 13th, 16th days, random polypeptide 100 μg on 7th day
Description: Furthermore, the antimetastatic effect of the compound of the present invention on a spontaneous metastasis model was examined. Namely, B16-BL6 cells were transplanted into the foot pads of C57BL/mice (each group having five animals). […] The transplanted cancer was removed on the 21st day and the mouse was anatomized 2 weeks later to examine the metastasis of the cancer into the lungs.

[7] = tested on: platelet aggregation induced by B16-BL6 melanoma cells; conditions: 100 μg/ml added to heparinized PRP 7 minutes before the cells; FIGS. 2 and 3
Method: The blood of a C57BL/6 mouse was centrifuged at 160×g for 15 minutes to give platelet rich plasma (PRP). As a control, platelet poor plasma (PPP) obtained by centrifuging the blood at 1,000×g for 10 minutes was employed. […] After preincubation for 5 to 7 minutes, the mixture was added to a suspension of B16-BL6 cells in physiological saline (approximately 10^6 /ml) and stirred at 37° C. at 1,000 rpm. During this period, the aggregation of the platelets was monitored with a dual aggregometer (Model 440; Chrono-Log, USA). […] FIGS. 1 to 3 together show the results.

[8] = tested on: adhesion of B16-BL6 melanoma cells to fibronectin; assay: Inhibition of B16-BL6 cell adhesion to fibronectin-coated substrate by peptides present during culture; format: cell-based, mouse; conditions: for Adhesiveness adhered cell No./substrate (SD) / Percentage in parentheses (inhibition of adhesion to fibronectin): fibronectin coating
Method: First, microculture wells were preliminarily coated with 20 μg/ml of the polypeptide to be examined or 5 μg/ml of mouse fibronectin (obtained from Seikagaku Kogyo, Japan) which was used as a positive control. Next 0.05 ml/well of B16-BL6 melamona cells (2×10^4) labeled with a radioactive iodide [^125 I]IUdR was added thereto and the cells were cultured at 37° C. for 20 minutes. The number of cells thus adsorbed by the culture wells was determined by measuring the radioactivity. 1% bovine serum albumin (BSA) was employed as a negative control. The B16-BL6 melanoma cells were labeled by culturing the cells to be labeled at the logarithmic growth phase for 24 hours in an MEM medium containing 5% of FBS and 0.3 μCi/ml of [^125 I]IUdR (200 mCi/mmol; obtained from New England Nuclear, Boston, Mass., USA).
The labeled cells were washed with physiological saline solution twice and suspended in 0.02% EDTA for 1 minute. Subsequently the cells were collected and suspended in a serum-free MEM medium. The cell suspension thus obtained was used in the above examination. The unadsorbed cells in the well were washed away with PBS 4 times. Then the cells adsorbed by the well were dissolved in 0.1 ml of 0.1N NaOH. The number of adsorbed cells was determined by measuring the radioactivity of the dissolved cells.

[9] = tested on: B16-BL6 melanoma cells; assay: Distribution and retention of [125I]IUdR-labeled B16-BL6 melanoma cells in organs
Method: B16-BL6 cells at the logarithmic growth phase were labeled with [^125 I]IUdR. […] The liver, kidneys, spleen and lungs of each animal were removed 30 minutes or 24 hours after the administration and the radioactivity in these organs was determined. Mice which received PBS were used as control animals.

[10] = 100 μg/animal, administration date 7
[11] = Test 1, simultaneous (mixed with 5×10^4 cells, i.v.), 500 μg, colonies counted after 14 days
[12] = incubated with 100 μg/ml peptide
[13] = incubated with 500 μg/ml peptide
[14] = 100 μg/animal, administration date 14
[15] = 100 μg/animal, administration date 20
[16] = 50 × 4 μg/animal, administration dates 7, 10, 13, 16
[17] = 500 μg/mouse with labeled cells i.v.

O=C(O)CN(CCN(CC(=O)O)CC(=O)O)CC(=O)O [EDTA, reference compound]
Inhibition of cell-adhesiveness of fibronectin (in words) ([1]; 5 mM): inhibited

Poly(Tyr-Ile-Gly-Ser-Arg)HCl (YIGSR; not fully specified; printed as Poly(Tyr-Ile-Gly-Ser-Arg)HCl; also: HCl salt)
No. of instances of metastasis to lung mean ± SD ([2]; 100 μg/animal): 14 ± 11 | Antimetastatic activity relative to the original pentapeptide ([2]; mouse, in vivo): ~10 times | Antimetastatic effect on metastasis to the lungs (in words) ([2]; polypeptide 2, 20 and 100 μg, pentapeptide 100 μg, mixed with cancer cells): remarkably inhibited | No. of instances of metastasis to lung mean ± SD ([3]; 5 μg/animal): 81 ± 9 | No. of instances of metastasis to lung mean ± SD ([3]; 20 μg/animal): 43 ± 13 | No. of instances of metastasis to lung mean ± SD ([3]; 100 μg/animal): 19 ± 9 | Cytotoxicity on erythrocytes, spleen and thymus cells [4]: neither any cytotoxicity

Poly(L-arginyl-glycyl-L-aspartic acid)hydrochloride [Poly(Arg-Gly-Asp)-1500]
Antimetastatic effect compared with the control group (in words) ([3]; Test 2): remarkable antimetastatic effect | Metastasis to lung mean ± SD ([3]; Test 2, simultaneous, 1000 μg): 14 ± 4

Fibronectin: mouse fibronectin (obtained from Seikagaku Kogyo, Japan) used as a positive control
Adsorption of B16-BL6 melanoma cells to coated wells (in words) [5]: accelerated the adsorption | Adhesiveness adhered cell No./substrate (SD) [5]: 5849 ± 513 adhered cell No./substrate

Copoly(L-arginine hydrochloride, glycine, L-aspartic acid) [Poly(Arg, Gly, Asp), reference compound]
Metastasis of the cancer to the lungs (in words) [6]: did not suppress | Number of metastatic cancer to lung (mm ± SD) [6, 10]: 158 ± 62 mm | Size of transplanted cancer (mm ± SD), observation on 21st day [6, 10]: 11 ± 3 mm | Suppression of platelet aggregation induced by B16-BL6 cells (in words) [7]: scarcely any suppression capability | Antimetastatic effect on metastasis to lungs (in words) ([3]; Test 1): no such antimetastatic effect | Metastasis to lung mean ± SD [3, 11]: 65 ± 4 | Adsorption of B16-BL6 melanoma cells to coated wells (in words) [5]: scarcely any adsorption | Adhesiveness adhered cell No./substrate (SD) [5]: 1750 ± 395 adhered cell No./substrate

Cl.N=C(N)NCCC[C@H](N)C(=O)NCC(=O)N[C@@H](CC(=O)O)C(=O)O [Arg-Gly-Asp, L-arginylglycylaspartate hydrochloride, reference compound]
Amount needed relative to that of the polypeptide compound of the invention ([3]; Test 1): approximately 6 times | Antimetastatic effect on metastasis to lungs (in words) ([3]; Test 1): no such antimetastatic effect | Metastasis to lung mean ± SD [3, 11]: 46 ± 14 | Metastasis to lung mean ± SD ([3]; Test 1, simultaneous, 3000 μg, 14 days): 18 ± 24 | Amount needed to achieve an antimetastatic effect comparable to that of Poly(Arg-Gly-Asp) ([3]; Test 1, versus 500 μg Poly(Arg-Gly-Asp)): 3,000 μg | Inhibition of adhesion of fibronectin to cells (in words) ([8]; 100 or 500 μg/ml peptide (His-Gly-Gly 500 μg/ml), hydrochloride): dose-dependently inhibited | Adhesiveness adhered cell No./substrate (SD) [8, 12]: 5320 ± 52 adhered cell No./substrate | Adhesiveness adhered cell No./substrate (SD) [8, 13]: 3708 ± 265 adhered cell No./substrate | Percentage in parentheses (inhibition of adhesion to fibronectin) [8, 13]: 37%

Poly(L-arginylglycyl-L-aspartate hydrochloride) [Poly(Arg-Gly-Asp)]
Metastasis of the cancer to the lungs (in words) [6]: remarkably reduced | Number of metastatic cancer to lung (mm ± SD) ([6]; 100 μg/animal, administration date 1): 24 ± 17 mm | Size of transplanted cancer (mm ± SD), observation on 21st day ([6]; 100 μg/animal, administration date 1, topical): 8 ± 4 mm | Number of metastatic cancer to lung (mm ± SD) [6, 10]: 29 ± 22 mm | Size of transplanted cancer (mm ± SD), observation on 21st day [6, 10]: 9 ± 3 mm | Number of metastatic cancer to lung (mm ± SD) [6, 14]: 120 ± 29 mm | Size of transplanted cancer (mm ± SD), observation on 21st day [6, 14]: 10 ± 4 mm | Number of metastatic cancer to lung (mm ± SD) [6, 15]: 131 ± 79 mm | Size of transplanted cancer (mm ± SD), observation on 21st day [6, 15]: 8 ± 3 mm | Number of metastatic cancer to lung (mm ± SD) [6, 16]: 26 ± 29 mm | Size of transplanted cancer (mm ± SD), observation on 21st day [6, 16]: 8 ± 3 mm | Growth of the transplanted cancer per se (in words) ([6]; same regimens): could not be suppressed | Suppression of platelet aggregation induced by B16-BL6 cells (in words) [7]: completely suppressed | No. of instances of metastasis to lung mean ± SD ([2]; 500 μg/animal): 34 ± 7 | Inhibition of adhesion of fibronectin to cells (in words) ([1]; 100 or 500 μg/ml peptide (His-Gly-Gly 500 μg/ml)): inhibited | Percentage in parentheses (inhibition of adhesion to fibronectin) ([1]; fibronectin coating, incubated with 100 μg/ml peptide): 37% | Antimetastatic effect on metastasis to lungs (in words) ([3]; Test 1): remarkably inhibited | Metastasis to lung mean ± SD [3, 11]: 23 ± 3 | Antimetastatic effect compared with the control group (in words) ([3]; Test 2): remarkable antimetastatic effect | Metastasis to lung mean ± SD ([3]; Test 2, separate (i.v. 5 minutes after the cells), 1000 μg): 16 ± 4 | Metastasis to lung mean ± SD ([3]; Test 2, simultaneous, 1000 μg): 6 ± 4 | Antimetastatic effect (in words) ([3]; not mixed, i.v. to mice given B16-BL6 cells 5 minutes before): high antimetastatic effect | Adsorption of B16-BL6 melanoma cells to coated wells (in words) [5]: accelerated the adsorption | Adhesiveness adhered cell No./substrate (SD) [5]: 7967 ± 910 adhered cell No./substrate | Radioactivity in other organs including blood versus control (in words) ([9]; 500 μg/mouse): no significant difference | Radioactivity of the lungs versus control group (in words) ([9]; 500 μg/mouse): markedly lower | Radioactivity (cpm ± SD), Lung ([9]; 500 μg/mouse with 2×10^4 labeled cells i.v., average of 3 animals): 1121 ± 281 cpm | Radioactivity (cpm ± SD), Blood (1 ml) [9, 17]: 304 ± 94 cpm | Radioactivity (cpm ± SD), Kidney [9, 17]: 73 ± 19 cpm | Radioactivity (cpm ± SD), Liver [9, 17]: 195 ± 42 cpm | Radioactivity (cpm ± SD), Spleen [9, 17]: 59 ± 7 cpm | Percentage relative to the administered radioactivity, Lung ([9]; administered 15308 ± 1605 cpm/2 × 10^4 cells): 7.3% | Percentage relative to the administered radioactivity, Blood (1 ml) ([9]; mouse, in vivo): 2.0% | Percentage relative to the administered radioactivity, Kidney ([9]; mouse, in vivo): 0.5% | Percentage relative to the administered radioactivity, Liver ([9]; mouse, in vivo): 1.3% | Percentage relative to the administered radioactivity, Spleen ([9]; mouse, in vivo): 0.4% | Adhesiveness adhered cell No./substrate (SD) [8, 12]: 3687 ± 229 adhered cell No./substrate | Adhesiveness adhered cell No./substrate (SD) [8, 13]: 3715 ± 231 adhered cell No./substrate | Percentage in parentheses (inhibition of adhesion to fibronectin) [8, 13]: 36%
